Source: patent US8586530B2, “Modulation of inhibition of ferrochelatase by N-methyl protoporphyrin” (University of South Florida, priority 2006, dated 2013)
Substitutions are numbered along the chain they refer to.

Columns and labels:
[1] = biological target: T1, ferrochelatase variant P255R (Mus musculus, UniProt P22315, P308R); experiment: Transient kinetic analysis of NMPP inhibition (stopped-flow, zinc-protoporphyrin formation); assay type: biochemical, murine
T1 construct: In wild-type, murine, mature ferrochelatase, five tryptophan residues; penta-histidine tag (N); made in house; host or cells: E. coli BL21(DE3)
T1 sequence (P22315 54-422 P308R): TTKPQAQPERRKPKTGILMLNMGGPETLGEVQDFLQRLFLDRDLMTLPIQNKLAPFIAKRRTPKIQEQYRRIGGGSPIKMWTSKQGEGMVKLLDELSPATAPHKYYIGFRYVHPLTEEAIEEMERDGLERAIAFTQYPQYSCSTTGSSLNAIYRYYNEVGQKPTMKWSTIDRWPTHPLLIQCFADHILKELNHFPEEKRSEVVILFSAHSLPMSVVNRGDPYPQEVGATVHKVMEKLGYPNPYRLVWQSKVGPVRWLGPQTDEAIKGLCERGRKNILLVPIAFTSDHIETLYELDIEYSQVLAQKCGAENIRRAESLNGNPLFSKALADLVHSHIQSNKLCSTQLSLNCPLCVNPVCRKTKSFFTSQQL
Description: (§1) Enzyme (0.5 μM) was reacted with protoporphyrin (5 μM) and zinc-acetate (15 μM) in the presence of various concentrations of NMPP. The pseudo first-order rate constant k was obtained from analysis of the time course (see Materials and Methods and FIG. 4) and plotted against NMPP concentration. The enzymes used in each set were: A. wild-type ferrochelatase; B. variant P255R; C. variant P255G.
(§2) In order to obtain the pseudo first-order rate constants for NMPP binding, the kinetic traces for zinc-protoporphyrin formation in the presence of various concentrations of inhibitor were fitted to equation 3. […] The data were fit to equation 1 for a two step process:
(§3) [formula] where k is the pseudo first-order rate constant for the approach to the steady-state phase, I0 is the inhibitor concentration, S0 is the initial substrate concentration,
(§4) [formula] is the apparent inhibition constant, Ki^app, and k2 and k−2 are the second step forward and reverse rate constants, respectively. […] A two kinetic step process for binding of NMPP to either wild-type ferrochelatase or P255R (i.e., a fast, initial step for NMPP binding to the enzyme, followed by a slow step, possibly related to a conformational rearrangement of the protein-inhibitor complex) is consistent with the porphyrin-triggered conformational change of the active-site pocket deduced from the analysis of the crystal structure of B. subtilis ferrochelatase with bound N-methyl mesoporphyrin in comparison with that of the unliganded protein. […] Therefore the diminished inhibition of variant P255R by NMPP (Ki^app=1 μM vs. Ki^app=3 nM for wild-type ferrochelatase) cannot be accounted for by differences in these rates.
(§5) Transient Kinetic Analysis. The kinetic steps involved in NMPP binding to ferrochelatase were assessed using stopped-flow absorption spectroscopic analysis by monitoring the enzymatic reaction in the presence of various concentrations of the inhibitor NMPP. The reactions were performed using a rapid scanning stopped-flow spectrophotometer (model RSM-1000; OLIS Inc.), equipped with a stopped-flow mixer and an observation chamber with an optical path-length of 4 mm. The dead time of the instrument is ˜2 ms. Scan spectra spanning the wavelength range of 347 to 574 nm were collected at a rate of 1000 scan/sec. The syringes containing the reaction components and the stopped-flow cell were maintained at 30° C. using an external water-bath. The concentrations of reagents loaded into each syringe were two-fold greater than the final concentrations in the observation chamber. Enzymatic activity was monitored by following the increase in absorbance at 420 nm for zinc-protoporphyrin production using Zn^2+ and protoporphyrin as substrates.
(§6) The enzyme and substrate stock solutions were diluted in 100 mM Tris-acetate, pH 8.0, containing 0.5% Tween-80. The stock solutions for substrates and inhibitor were prepared as follows: A 3 mM zinc-acetate solution was made by dissolving zinc-acetate in distilled and deionized H2O. A 200 μM protoporphyrin solution was prepared by dissolving protoporphyrin 1× in 50 mM NH4OH containing 0.5% Tween-80. A 2 mM NMPP solution was prepared by dissolving NMPP in 100 mM NH4OH containing 0.5% Tween-80. Typically, a 2 mL solution that was 1 μM in ferrochelatase and 10 μM in protoporphyrin was pre-incubated on ice for 30 min. The porphyrin-enzyme solution was titrated with NMPP. The mixture was subsequently transferred to one of the stopped-flow syringes. The other stopped-flow syringe was loaded with a reaction buffer solution of ˜2 mL that was 30 μM in zinc-acetate. The enzymatic reaction was initiated by mixing the contents from both syringes and reaction progression was monitored by following the increase in absorbance at 420 nm. The data were analyzed by fitting the observed absorbance values to equation 4: […]

wild-type ferrochelatase = biological target: T2, wild-type ferrochelatase (Mus musculus, UniProt P22315); experiment: as above; assay type: biochemical, murine
T2 construct: In wild-type, murine, mature ferrochelatase, five tryptophan residues; penta-histidine tag (N); made in house; host or cells: E. coli BL21(DE3)
T2 sequence (P22315 54-422): T1 sequence (P22315 54-422 P308R) with R255P
Description: as §1, §2, §3, §4, §5, §6

[2] = two-step fit (equation 1), read-out: apparent inhibition constant Ki^app

second step forward rate constant k2 [1]: 8.3 s⁻¹
second step reverse rate constant k−2 [1]: 19.3 s⁻¹
Ki [1, 2]: 1000 nM
second step forward rate constant k2 (wild-type ferrochelatase): 6.4 s⁻¹
second step reverse rate constant k−2 (wild-type ferrochelatase): 24.5 s⁻¹
Ki (wild-type ferrochelatase; [2]): 3 nM
Substance: N-methyl protoporphyrin [NMPP]
